The nature of the data set: PK1: absolute/subcutaneous bioavailability study of Tacrolimus solution (IV and SC). Conditions: for AUClast/D1 / AUC∞/D1 / Cmax/D1: dose-normalized by actual dose per kg. Format: in vivo, female Göttingen minipig. The protocol: PK1: A 2-Month Pharmacokinetic Study of Different Sustained-Release Formulations of Tacrolimus after Subcutaneous Administration and Subcutaneous Bioavailability Study of Tacrolimus in Female Göttingen Minipig
Evaluation of the Absolute Bioavailability of Tacrolimus
The dose volume for each animal was 12.5 mL corresponding to a unique dose of 2.5 mg/animal. Solution was administered: • intravenously into the ear vein using 20 mL polypropylene syringe and 23 G butterfly needle. • subcutaneously in a skin fold caudal to the axillar region/shoulder using 20 mL polypropylene syringe and 21 G needle.
Blood samples were collected into EDTA tubes at predose and at different time points: • Intravenous dosing: 5 min (0.083 h), 15 min (0.25 h), 30 min (0.5 h), and 1, 2, 6, 24, 48, 72 and 96 h after end of dosing. • Subcutaneous dosing: 30 min (0.5 h), and 1, 2, 4, 6, 10, 24, 48, 72 and 96 h after end of dosing.
Whole blood samples were analyzed to determine the concentration of the test item using a qualified analytical procedure. 2-Month Pharmacokinetic Study of Sustain-Release Formulations

Where [1] appears, read: Tacrolimus solution 2.5 mg/animal IV.
Where [2] appears, read: Tacrolimus solution 2.5 mg/animal SC.
Setting [3] is: female, Göttingen, minipig, Tacrolimus solution 2.5 mg/animal IV, whole blood.
Where [4] appears, read: female, Göttingen, minipig, Tacrolimus solution 2.5 mg/animal SC, whole blood.

SMILES strings stand for the structures.

Usually bioavailability stands for dose-corrected exposure relative to a reference, in per cent. One may read the AUC(0-inf) as the area under the concentration-time curve extrapolated to infinity. High values mean high exposure, low ones low exposure. As usually defined, the AUC(0-t) is exposure summed from dosing to a finite time, without extrapolation to infinity. Read a low AUC(0-t) as low exposure. In general, half-life refers to the time in which the quantity being followed falls by half. What is called Cmax is the highest concentration seen after dosing. Broadly, the Tmax is the time at which the peak concentration occurs.

As to `C=CC[C@@H]1/C=C(\C)C[C@H](C)C[C@H](OC)[C@H]2O[C@@](O)(C(=O)C(=O)N3CCCC[C@H]3C(=O)OC(/C(C)=C/[C@@H]3CC[C@@H](O)[C@H](OC)C3)[C@H](C)[C@@H](O)CC1=O)[C@H](C)C[C@@H]2OC` (stereo partly shown) [Tacrolimus], under setting [1], the AUClast/D1 amounted to 17900 ± 1620 kg·ng·h/mL/mg and the “AUC∞/D1” value came out at 19700 ± 1750 kg·ng·h/mL/mg. Under “Tacrolimus solution 2.5 mg/animal IV, whole blood”, the Clast was found to be 4.22 ± 2.08 ng/mL. Further, under “Tacrolimus solution 2.5 mg/animal IV, whole blood, median (range)”, the tlast is 95.7 (95.7-96.1)^$ h. Besides, under setting [2], the AUClast/D1 was determined as 17100 ± 1090 kg·ng·h/mL/mg, the “AUC∞/D1” value was 18100 ± 1150 kg·ng·h/mL/mg and the Cmax/D1 turned out to be 779 ± 30.8 kg·ng/mL/mg. For the same compound, the Cmax/D1 (Tacrolimus solution 2.5 mg/animal SC, listed as immediate release compound) came to 779 kg·ng/mL/mg. This compound showed a Clast (Tacrolimus solution 2.5 mg/animal SC, whole blood) of 2.89 ± 0.759 ng/mL. The same compound yielded a tlast (Tacrolimus solution 2.5 mg/animal SC, whole blood, median) of 96 h. Also, under “female, Göttingen, minipig, whole blood, subcutaneous, Tacrolimus solution 2.5 mg/animal SC vs IV”, the bioavailability was 92.4%. Besides, under setting [3], the AUC(0-inf) was 2040 ± 258 ng·h/mL, the AUC(0-t) was determined as 1850 ± 224 ng·h/mL and the half-life is 31.5 ± 1.62 h. Under setting [4], this compound gave an AUC(0-inf) of 1870 ± 189 ng·h/mL, an AUC(0-t) of 1760 ± 169 ng·h/mL, a Cmax of 80.2 ± 2.63 ng/mL and a half-life of 25.7 ± 2.25 h. Besides, the Tmax (female, Göttingen, minipig, Tacrolimus solution 2.5 mg/animal SC, whole blood, median) worked out at 4 h.

These data come from patent publication US20240122905A1, “PHARMACEUTICAL COMPOSITION” (MedinCell S.A., priority 2020, published 2024).
